Assay results as given in patent US20240218156A1, “PLASTICIZER, PLASTIC COMPOSITION, AND PLASTIC PRODUCT” (LARGAN MEDICAL CO., LTD., priority 2022, published 2024).

Legend:
[1] = Pyrolysis temperature of the plasticizer; assay type: physicochemical
Protocol: According to the plasticizer of the present disclosure, when a pyrolysis temperature of the plasticizer is Pt, the following condition can be satisfied: 100° C.≤Pt. Therefore, it is favorable for stabilizing the structure of the plasticizer at the high temperature by the high pyrolysis temperature of the plasticizer. Furthermore, the following condition can be satisfied: 120° C.≤Pt. Furthermore, the following condition can be satisfied: 150° C.≤Pt. Furthermore, the following condition can be satisfied: 170° C.≤Pt. Furthermore, the following condition can be satisfied: 180° C.≤Pt.

[2] = system: mouse lung fibroblast (L929 cell line); test: Cell viability test (ISO10993-5, MTT assay); assay type: cell-based; conditions: for cell viability: L929, 24 hours, 37° C.
Text: The 1st example is used as the experimental group to perform the cell viability test. Specifically, according to ISO10993-5 standard method, the mouse lung fibroblast (L929 cell line) is used as the test cell, and the composition of the test culture medium is 90% MEM culture medium, 10% fetal bovine serum (FBS) and additional 1% antibiotic (penicillin-streptomycin). Then, the ethanol with the final concentration of 0.1% is used as the solvent to dissolve the tested plasticizer in the test culture medium. The control group of the cell viability test is the test culture solution only added the ethanol with the final concentration of 0.1%. In the experimental group, the plasticizer of the 1st example with the concentration of 0.1 mM or 0.3 mM is added to the test culture solution, respectively, and the concentration of the ethanol in the test culture solution of the control group and the experimental group are the same, the test condition is the 37° C. environment containing 5% carbon dioxide placed for 24 hours. After the test finished, each group is tested with MTT assay, the detection wavelength is the optical density at 570 nm (OD570) and the optical density at 650 nm (OD650), and the cell viability is calculated accordingly. The formula for calculating the cell viability is: (the average value of OD570 and OD650 in the experimental group)/(the average value of three repetitions of (the average value of OD570 and OD650 in the control group))×100%. The cell viability is used to determine whether the group has the cytotoxicity, and when the cell viability is more than 70%, it is considered that this group is non-cytotoxic.

CCC(CC)COC(=O)CC(N)C(=O)OCC(CC)CC (stereo not shown) [1st example, 1,4-bis(2-ethylbutyl) 2-aminobutanedioate]
Pt (º C.) [1]: 200 º C.
toxic to the cells ([2]; 0.3 mM): will not be toxic to the cells
cell viability ([2]; plasticizer 0.1 mM): 99.10%
cell viability ([2]; plasticizer 0.3 mM): 81.90%
